Test results as given in ChEMBL document CHEMBL4265941, “Side effects of methotrexate therapy for rheumatoid arthritis: A systematic review” (Eur J Med Chem, 2018).

Experiments:
Assay type in all cases: ADME, organism-based
[1] = Tmax in RA patient at 7.5 to 25 mg, po; settings: human, in vivo
[2] = Tmax in RA patient at 7.5 to 25 mg, im; settings: human, in vivo
[3] = Oral bioavailability in human; settings: in vivo

CN(Cc1cnc2nc(N)nc(N)c2n1)c1ccc(C(=O)N[C@@H](CCC(=O)O)C(=O)O)cc1 [METHOTREXATE]
Tmax [1]: 1.5 h
Tmax [2]: 1.3 h
bioavailability [3]: 50 to 80%
